In patent US20060281789A1, “Protein kinase inhibitors” (KYOWA HAKKO KOGYO CO., LTD, priority 2003, published 2006):
Where a name gives a salt, the structure may show the parent alone.

Tests used:
MV-4-11 = experiment: Cytostatic activity on human acute myeloid leukemia cell line MV-4-11 (WST-1); type: cell-based; details: MV4-11, 3.16 μmol/L, 72 hours, read-out: MV-4-11 (%) cytostatic rate
Procedure: (§1) The cytostatic rates of a test compound on human acute myeloid leukemia cell lines MV-4-11 and ML-1, and human chronic myeloid leukemia cell line K562 were determined in the following manner.
(§2) Each cell was cultured using Roswell Park Memorial Institute's Medium (RPMI) 1640 (Gibco, Catalog No. 11875-093) containing 10% fetal bovine serum (Gibco, Catalogue No. 10437-028) and penicillin/streptomycin (1:1) (Gibco, Catalogue No. 15140-122). Each 80 μL of the MV-4-11 cell having a concentration of 7.5×10^4 cells/mL (or the ML-1 cell or K562 cell having a concentration of 2.5×10^4 cells/mL) was inoculated to wells of a TC MICROWELL 96U plate (Nalge Nunc International, Catalogue No. 163320) and was cultured in a 5% carbon dioxide gas incubator at 37° C. for 4 hours. As a blank, only RPMI medium (80 μL) was added to a well. Each 20 μL of a solution of the test compound in dimethyl sulfoxide (DMSO) which was prepared to make the final concentration to 3.16 μmol/L or 10 μmol/L, was added to the MV-4-11 cell, ML-1 cell and K562 cell, respectively. Each 20 μL of DMSO was added to the control well and the blank well to a final concentration of 0.1%. After adding the test compound, the cells were incubated in a 5% carbon dioxide gas incubator at 37° C. for 72 hours. After adding 20 μL of WST-1 reagent {4-[3-(4-iodophenyl)-2-(4-nitrophenyl)-2H-5-tetrazolio]-1,3-benzene disulfonate sodium salt) (Roche Diagnostics K.K., Catalogue No. 1644807) diluted to 50% with RPMI medium, the cells were further incubated at 37° C. for 2 hours. Then, the absorbances at 450 nm (reference wavelength: 690 nm) were determined with a microplate spectrophotometer SPECTRA max 340PC (Molecular Devices Corporation). The relative growth (%) of a well to which the test compound had been added was determined while setting the absorbance of a well to which not the test compound but DMSO alone had been added (control) at 100% and that of a well containing RPMI medium alone at 0%. The cytostatic rate (%) of the test compound was determined by subtracting the calculated relative growth from 100.

ML-1 = experiment: Cytostatic activity on human acute myeloid leukemia cell line ML-1 (WST-1); type: cell-based; details: ML1, 3.16 μmol/L, 72 hours, read-out: ML-1 (%) cytostatic rate
Procedure: as §1, §2

K562 = experiment: Cytostatic activity on human chronic myeloid leukemia cell line K562 (WST-1); type: cell-based; details: 10 μmol/L, 72 hours, read-out: K562 (%) cytostatic rate
Procedure: as §1, §2

Colo205 = experiment: Cytostatic activity on human colon cancer cell line Colo205 (WST-1); type: cell-based; details: 10 μmol/L, 72 hours
Procedure: The cytostatic rate of a test compound on the human colon cancer cell line Colo205 was determined in the following manner.
The cell was cultured using Roswell Park Memorial Institute's-Medium (RPMI) 1640 (Gibco, Catalog No. 11875-093) containing 10% fetal bovine serum (Gibco, Catalog-No. 10437-028) and penicillin/streptomycin (1:1) (Gibco, Catalog No. 15140-122). Each 80 μL of the Colo205 having a concentration of 1.25×10^4 cells/mL was inoculated to wells of a TC MICROWELL 96F plate (Nalge Nunc International, Catalog No. 167008) and was cultured in a 5% carbon dioxide gas incubator at 37° C. for 4 hours. As a blank, only RPMI (80 μL) was added to a well. Each 20 μL of a solution of the test compound in DMSO which was prepared to make the final concentration to 10 μmol/L, was added to the Colo205 cell. Each 20 μL of DMSO was added to the control well and the blank well to a final concentration of 0.1%. After adding the test compound, the cell was incubated in a 5% carbon dioxide gas incubator at 37° C. for 72 hours. The cytostatic rate (%) was then determined in the same manner as the method or the leukemia cell lines described above.

human Flt-3 = molecular target: T1, human Flt-3 (Homo sapiens, UniProt P36888); experiment: Inhibitory activity on Flt-3 (GST-fused kinase, time-resolved fluoroimmunoassay); type: biochemical; details: tested compound 10 μmol/L, ATP 10 μmol/L, sixty minutes
T1 construct: fused to the N-terminus of the intracellular domain (583-953 amino acids) thereof; made in house; host or cells: insect cells (baculovirus)
T1 sequence (P36888 583-953): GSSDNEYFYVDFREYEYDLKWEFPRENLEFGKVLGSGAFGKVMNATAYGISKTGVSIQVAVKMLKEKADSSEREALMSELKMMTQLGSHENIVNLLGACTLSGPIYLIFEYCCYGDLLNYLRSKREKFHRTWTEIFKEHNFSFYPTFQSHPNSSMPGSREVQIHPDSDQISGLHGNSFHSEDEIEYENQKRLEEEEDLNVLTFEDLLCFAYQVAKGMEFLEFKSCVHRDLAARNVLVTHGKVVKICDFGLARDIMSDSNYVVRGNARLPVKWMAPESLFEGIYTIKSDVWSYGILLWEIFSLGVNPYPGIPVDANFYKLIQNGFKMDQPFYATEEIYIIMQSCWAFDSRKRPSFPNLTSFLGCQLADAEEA
Procedure: Flt-3 inhibitory activities were determined in the following manner.
Flt-3 was prepared by allowing baculovirus to infect insect cells, which baculovirus expresses a protein comprising human Flt-3 with […]. […] Separately was prepared a solution containing, at final concentrations, GST-fused Flt-3 (100 μg/L), Tris-Cl (pH 7.5) (20 mmol/L), β-glycerophosphate (5 mmol/L), dithiothreitol (DTT) (1 mmol/L), Na3VO4 (0.1 mmol/L), MgCl2 (10 mmol/L), MnCl2 (10 mmol/L), ATP (10 μmol/L), bovine serum albumin (BSA) (0.1%), DMSO (0.1%), and a tested compound (10 μmol/L). The solution (each 60 μL) was placed into the wells of the plate for the determination of kinase reaction, followed by enzymatic reaction at room temperature for sixty minutes. After reacting, the reaction was stopped by the addition of 50 μL of a 25 mmol/L aqueous solution of ethylenediaminetetraacetic acid. […] The relative activity (%) of a well in which the enzyme and tested compound were added was determined by calculation with the value in a well to which the tested compound was not added being 100% and the value in a well to which the enzyme and the tested compound were not added being 0%. The Flt-3 inhibitory activity (%) of the tested compound was determined by subtracting the relative activity (%) from 100.

inhibition at 10 µM (human Flt-3)	Structure (SMILES)	inhibition at 3.16 µM (MV-4-11)	inhibition at 3.16 µM (ML-1)	inhibition at 10 µM (K562)	Colo205(%) cytostatic rate (Colo205)
–	CN(C)CCCOc1ccc(/C=C/c2n[nH]c3ccccc23)cc1 [Compound 10, (E)-3-{2-[4-(3-dimethylaminopropoxy)phenyl]vinyl}-1H-indazole hydrochloride]	97%	92%	95%	–
–	CN(C)CCOc1cccc(/C=C/c2n[nH]c3ccccc23)c1 [Compound 18, (E)-3-{2-[3-(2-dimethylaminoethoxy)phenyl]vinyl}-1H-indazole hydrochloride]	95%	4.1%	59%	–
–	C(=C\c1n[nH]c2ccccc12)/c1cccnc1 [Compound 21, (E)-3-[2-(3-pyridyl)vinyl]-1H-indazole]	79%	25%	41%	–
–	COc1ccc(/C=C/c2n[nH]c3ccccc23)cn1 [Compound 22, (E)-3-[2-(6-methoxypyridin-3-yl)vinyl]-1H-indazole]	82%	9.2%	63%	–
93.8%	COc1cc(/C=C/c2n[nH]c3ccccc23)ccc1OCC(=O)N1CCOCC1 [Compound 40, (E)-N-{4-[2-(1H-indazol-3-yl)vinyl]-2-methoxyphenoxy}acetylmorpholine]	95%	95%	60%	93%
94.5%	N#Cc1cc(/C=C/c2n[nH]c3ccccc23)ccc1OCCN1CCOCC1 [Compound 47, (E)-3-{2-[3-cyano-4-(2-morpholinoethoxy)phenyl]vinyl}-1H-indazole]	98%	89%	75%	68%
95.2%	C(=C\c1n[nH]c2ccccc12)/c1ccc(N2CCNCC2)cc1.Cl [Compound 53, (E)-3-{2-[4-(piperazin-1-yl)phenyl]vinyl}-1H-indazole hydrochloride]	97%	80%	87%	90%
94%	CC(=O)N1CCN(c2ccc(/C=C/c3n[nH]c4ccccc34)cc2)CC1 [Compound 54, (E)-3-(2-[4-(4-acetylpiperazin-1-yl)phenyl]vinyl}-1H-indazole]	98%	89%	59%	78%
–	CC(=O)N1CCN(c2ccc(/C=C/c3n[nH]c4ccccc34)cc2N)CC1 [Compound 58, (E)-3-{2-[4-(4-acetylpiperazin-1-yl)-3-aminophenyl]vinyl}-1H-indazole]	97%	90%	61%	91%
–	Nc1cc(/C=C/c2n[nH]c3ccccc23)ccc1N1CCNCC1 [Compound 59, (E)-3-{2-[3-amino-4-(piperazin-1-yl)phenyl]vinyl}-1H-indazole]	98%	86%	84%	89%

Structure (SMILES)	inhibition at 10 µM (human Flt-3)	inhibition at 3.16 µM (MV-4-11)	inhibition at 3.16 µM (ML-1)	inhibition at 10 µM (K562)	Colo205(%) cytostatic rate (Colo205)
C(=C\c1n[nH]c2ccccc12)/c1ccc(OCCN2CCOCC2)cc1 [Compound 5, (E)-3-{2-[4-(2-morpholinoethoxy)phenyl]vinyl}-1H-indazole hydrochloride]	93.3%	91%	16%	81%	90%
